Experimental data reported in patent US9522125B1, “Method of treating cancer” (Macau University of Science and Technology, priority 2015, dated 2016).

Experiments:
ROS1 kinase = ROS1 kinase (Homo sapiens, UniProt P08922); experiment: In vitro ROS1 enzymatic assay (LanthaScreen Eu kinase binding assay); details: room temperature, 1 hour
Procedure: 1.2 In Vitro ROS1 Enzymatic Assay
LanthaScreen® Eu kinase binding assay was used to determine the changes in kinase activity, which is an assay based on the binding and displacement property of the kinase with substrate. Briefly, the assay was performed at room temperature for 1 hour in a total volume of 15 μL, including 5 μL of test compound, 5 μL of kinase/antibody mixture and 5 μL of tracer. The signal of the 384-well plate was then measured at the end of the reactions.

HCC78 cells [1] = experiment: MTT cytotoxicity assay on HCC78 cells; assay type: cell-based; details: Homo sapiens, 72 h treatment
Procedure: HCC78 cell line was purchased from the American Type Culture Collection (ATCC) (Manassas, Va., USA). Cells were cultured in RPMI-1640 medium containing 10% fetal bovine serum (FBS), 100 units/mL penicillin, and 100 μg/mL streptomycin under a humidified atmosphere of 5% CO2 at 37° C. Mitoxantrone was dissolved in DMSO.
(§1) 1.3 MTT Cytotoxicity Assay
(§2) 3000 cells were seeded on 96-well plates, then the plates were cultured overnight for cell adhesion, and treated with DMSO or various concentrations of mitoxantrone for 72 h. 10 μL of MTT (5 mg/mL; Sigma) was added in each well, and incubation was continued for another 4 hours, then the dark blue crystals were dissolved in 100 μL resolved solution (10% SDS and 0.1 mM HCL). Finally, the absorbance was measured at 570 nm by a microplate reader (Tecan, Morrisville, N.C., USA). The cell viability was calculated relative to untreated controls, and results were presented based on at least 3 independent experiments.

CCD19-Lu cells = experiment: MTT cytotoxicity assay on normal lung cells CCD19-Lu; assay type: cell-based; details: 72 h treatment
Procedure: as §1, §2

HCC78 cells [2] = experiment: Apoptosis analysis (morphology; Annexin-V FITC/PI flow cytometry) in HCC78 cells; assay type: cell-based
Procedure: HCC78 cells were seeded on a 6-well plate, and were allowed to attach overnight. The cells were treated with a dilution series of mitoxantrone for 48 h, collected by trypsin and washed twice with ice-cold PBS, and then resuspended in 100 μl 1× binding buffer. 2 μL Annexin-V FITC and 4 μL PI (100 μg/ml) were added to the solution and mixed well. After incubation for 15 min in the dark at room temperature, 400 μL of 1× binding buffer was added to each tube, where apoptosis level was then quantitatively analyzed using a FACSAria III Flow Cytometer (BD Biosciences, San Jose, Calif., USA).

ROS1 phosphorylation = experiment: Western blot analysis of ROS1 phosphorylation and downstream signaling in HCC78 cells; assay type: cell-based; details: 48 h, 5 nM, 10 nM and 20 nM
Procedure: 1.5 Western Blot Analysis
After cells were plated on 6-well plates overnight, a wide concentrations of mitoxantrone were administered for 48 h. Cells were washed twice with cold PBS and then lysed in RIPA lysis buffer containing protease and phosphatase inhibitors, and protein concentration of the cell lysates were measured using the Bio-Rad protein Assay kit (Bio-Rad, Philadelphia, Pa., USA). After equalizing the protein concentrations of the samples, 5× laemmli buffer was added and boiled at 100° C. for 5 min. Equal amounts of protein samples (30 μg) were subjected to SDS-PAGE and separated with a 10% gel; then the separated proteins were transferred to a Nitrocellulose (NC) membrane, which was then exposed to 5% non-fat dried milk in TBS containing 0.1% Tween 20 (0.1% TBST) for 1 h at room temperature, followed by overnight incubation at 4° C. with primary anti-bodies (1:1000 dilutions). After being washed 3 times by TBST, the membranes were incubated with secondary fluorescent antibodies (1:10000 dilutions) to rabbit or mouse, the signal intensity of the membranes was detected by an LI-COR Odessy scanner (Belfast, Me., USA). Antibodies against GAPDH, p-AKT, p-ROS1, ROS1, p-ERK, ERK, p-STAT3, STAT3 were purchased from Cell signaling Technology. Anti-AKT antibody was acquired from Santa Cruz Biotechnology.

Sequence of ROS1 kinase (P08922 28-2347): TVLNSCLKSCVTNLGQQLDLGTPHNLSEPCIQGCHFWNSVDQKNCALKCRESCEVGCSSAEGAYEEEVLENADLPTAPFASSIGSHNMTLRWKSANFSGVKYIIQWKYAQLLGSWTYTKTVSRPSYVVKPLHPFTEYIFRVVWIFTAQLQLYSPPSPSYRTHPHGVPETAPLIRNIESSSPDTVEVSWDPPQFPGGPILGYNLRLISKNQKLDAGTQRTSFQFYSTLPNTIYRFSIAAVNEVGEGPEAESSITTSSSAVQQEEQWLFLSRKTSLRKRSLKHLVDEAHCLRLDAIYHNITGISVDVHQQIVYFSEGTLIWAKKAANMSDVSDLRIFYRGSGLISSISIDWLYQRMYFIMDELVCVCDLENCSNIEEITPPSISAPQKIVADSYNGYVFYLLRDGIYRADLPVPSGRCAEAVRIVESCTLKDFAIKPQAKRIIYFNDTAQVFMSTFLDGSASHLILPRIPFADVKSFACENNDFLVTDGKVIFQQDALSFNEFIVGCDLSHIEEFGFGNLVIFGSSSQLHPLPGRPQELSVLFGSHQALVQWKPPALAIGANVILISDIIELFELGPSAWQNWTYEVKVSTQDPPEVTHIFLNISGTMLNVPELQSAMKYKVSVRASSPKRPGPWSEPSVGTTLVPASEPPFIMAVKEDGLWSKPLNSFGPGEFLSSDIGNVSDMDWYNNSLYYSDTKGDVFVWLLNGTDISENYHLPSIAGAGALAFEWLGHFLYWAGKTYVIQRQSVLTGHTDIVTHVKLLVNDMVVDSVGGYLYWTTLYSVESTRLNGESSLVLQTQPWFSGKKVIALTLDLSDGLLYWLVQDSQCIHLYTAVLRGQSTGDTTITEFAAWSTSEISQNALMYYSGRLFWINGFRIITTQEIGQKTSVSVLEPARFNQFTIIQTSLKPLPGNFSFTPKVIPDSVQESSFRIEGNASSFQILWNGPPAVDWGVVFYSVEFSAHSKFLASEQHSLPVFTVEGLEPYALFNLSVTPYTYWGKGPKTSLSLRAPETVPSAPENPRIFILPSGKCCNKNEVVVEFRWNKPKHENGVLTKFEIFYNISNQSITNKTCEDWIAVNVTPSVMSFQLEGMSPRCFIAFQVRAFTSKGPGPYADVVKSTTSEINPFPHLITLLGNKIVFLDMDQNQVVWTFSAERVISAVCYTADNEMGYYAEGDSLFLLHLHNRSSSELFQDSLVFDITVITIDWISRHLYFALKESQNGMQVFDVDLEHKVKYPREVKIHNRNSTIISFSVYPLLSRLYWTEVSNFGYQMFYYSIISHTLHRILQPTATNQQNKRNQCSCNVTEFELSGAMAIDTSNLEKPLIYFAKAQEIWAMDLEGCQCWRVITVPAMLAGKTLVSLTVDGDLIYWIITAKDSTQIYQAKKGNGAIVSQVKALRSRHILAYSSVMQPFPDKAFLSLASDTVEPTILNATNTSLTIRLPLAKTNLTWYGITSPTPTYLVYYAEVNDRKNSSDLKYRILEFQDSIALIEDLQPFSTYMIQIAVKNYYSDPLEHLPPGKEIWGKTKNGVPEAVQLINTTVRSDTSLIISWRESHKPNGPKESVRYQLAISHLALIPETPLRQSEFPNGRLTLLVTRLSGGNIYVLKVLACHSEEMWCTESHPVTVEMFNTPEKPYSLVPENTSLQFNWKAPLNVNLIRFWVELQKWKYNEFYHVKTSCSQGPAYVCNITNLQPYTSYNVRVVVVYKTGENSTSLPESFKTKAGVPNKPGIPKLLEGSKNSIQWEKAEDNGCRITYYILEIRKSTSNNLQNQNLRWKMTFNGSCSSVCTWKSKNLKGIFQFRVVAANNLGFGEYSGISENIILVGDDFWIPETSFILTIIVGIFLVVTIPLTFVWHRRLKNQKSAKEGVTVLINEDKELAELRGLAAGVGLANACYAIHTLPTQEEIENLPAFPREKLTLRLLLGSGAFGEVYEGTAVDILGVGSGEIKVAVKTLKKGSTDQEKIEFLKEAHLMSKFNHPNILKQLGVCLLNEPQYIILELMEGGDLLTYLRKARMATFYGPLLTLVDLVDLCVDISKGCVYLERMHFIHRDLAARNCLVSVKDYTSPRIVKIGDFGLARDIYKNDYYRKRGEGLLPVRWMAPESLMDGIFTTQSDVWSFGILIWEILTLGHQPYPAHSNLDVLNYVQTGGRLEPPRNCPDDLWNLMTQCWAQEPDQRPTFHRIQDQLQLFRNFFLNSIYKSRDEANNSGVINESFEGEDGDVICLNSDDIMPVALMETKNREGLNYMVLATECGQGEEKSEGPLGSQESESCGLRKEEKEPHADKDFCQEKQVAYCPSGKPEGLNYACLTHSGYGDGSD

Structure (SMILES): O=C1c2c(O)ccc(O)c2C(=O)c2c(NCCNCCO)ccc(NCCNCCO)c21 [Mitoxantrone, mitoxantrone]
- IC50 (ROS1 kinase): 36 nM
- IC50 (HCC78 cells [1]): 13.8 ± 2.49 nM
- fold of IC50 in CCD19-Lu over IC50 on HCC78 (CCD19-Lu cells): at least 11.6 fold
- IC50 (CCD19-Lu cells; Homo sapiens, CCD 19Lu, CCD19-Lu normal lung cells): > 160 nM
- induction of apoptosis (flow cytometry) (HCC78 cells [2]; 48 h, 5 nM, 10 nM and 20 nM, compared with the control group): induced significant apoptosis levels
- concentration from which cells detached and became smaller (morphological indication of apoptosis) (HCC78 cells [2]; FIG. 4): ≥ 10 nM
- ROS1 phosphorylation and downstream signaling molecules Erk1/2, STAT3 and AKT (western blot) (ROS1 phosphorylation): dose-dependent decrease
